# Measured values: ChEMBL document CHEMBL1159303, “Isolation and structure determination of obyanamide, a novel cytotoxic cyclic depsipeptide from the marine cyanobacterium Lyngbya confervoides” (J Nat Prod, 2002)
# Key:
# KB = test: Cytotoxicity against human KB cells; format: functional, cell-based
# LoVo = test: Cytotoxicity against human LoVo cells; format: functional, cell-based
structure (smiles),measurement,setting,value
CC[C@H]1CC(=O)O[C@@H](C)C(=O)N(C)[C@@H](C(C)C)C(=O)N(C)[C@@H](Cc2ccccc2)C(=O)N[C@@H](C)c2nc(cs2)C(=O)N1 [OBYANAMIDE],IC50,KB,0.58 µg/mL
same,IC50,LoVo,3.14 µg/mL
